Test system: primary cultures of mouse cortical neurons
Assay: Oxygen glucose deprivation (OGD), cell viability by MTT assay
Type: cell-based
Settings: for reduction in OGD-induced neuronal cell death / loss of cell viability (increase in neuronal survival): pretreatment 24 hrs before OGD (3 hrs), MTT 24 hrs after OGD; for reduction of loss in cell viability after OGD: treatment 0.5 hrs before OGD, 1 μg/ml, viability 24 hrs later
Procedure: Embryonic day 16 timed pregnant CD1 out-bred mice were obtained from Charles River Laboratories (Charles River; QC, Canada). Primary cortical neuron cultures were prepared from cerebral cortices of wild type (WT) CD1 mouse embryos as described previously, with the following modifications. Pregnant CD1 females were heavily anaesthetized with isoflurane vapor (Benson Medical Industries, Inc., Markham, ON) before being euthanized by decapitation. The embryonic day 16 (E16) fetuses were immediately removed from the sacrificed pregnant females by cesarean section and placed in ice-cold Hank's Balanced Salt Solution (HBSS) (GIBCO; Invitrogen, Amarillo, Calif.). The meninges were removed from the brains and cortices were isolated under a dissecting microscope. The cortices from each embryo were placed in individual wells of a 24-well plate (Corning; Lowell, Mass.), containing 1 ml of ice-cold PBS (GIBCO; […] Under sterile conditions, the tissue was briefly minced, transferred to 15 ml sterile conical tubes (Corning; Lowell, Mass.) and centrifuged at 350×g for 3 min at room temperature. The dissecting solution was discarded and the cortical neurons were then dissociated trituration with fire-polished glass pipettes followed by incubating in 1 ml of 0.1% trypsin solution (0.1% w/v trypsin (Invitrogen, Amarillo, Calif.) in PBS with 1 mM Mg^2+ and 13 mM glucose) at 37° C. for 15 min. The trypsinization was inhibited by the addition of 0.5 ml of trypsin inhibitor solution that also contained DNase I (0.06% w/v trypsin inhibitor (Invitrogen; Amarillo, Calif.) and 0.01% DNase I (Invitrogen; […] The tubes were mixed briefly and the cells were centrifuged at 350×g for 3 min at room temperature. The trypsin and inhibitor solutions were discarded and each cell pellet was suspended in 1 ml of cortical neuron plating medium (Neurobasal medium (Invitrogen, Amarillo, Calif.) with 10% fetal bovine serum (GIBCO; Invitrogen; Amarillo, Calif.), 2% B27 supplement, 1 mM L-glutamine, and 1% Gentamycin (Invitrogen; […] Cortical neurons were plated in 96-well plates (Corning; Lowell, Mass.) that were pre-coated with poly-D-lysine (PDL; Sigma-Aldrich; Oakville, ON) according to the procedure described by the manufacturer. Briefly, plates were coated immediately before use with 100 μg/ml PDL for 5-10 min (50 μl/well), washed three times with tissue-culture grade water and left to dry for 2 h before cells were introduced. Cortical neurons were plated at a concentration of 1×10^6 cells/ml (100 µl/well) and medium was completely changed the day after plating to serum-free cortical neuron medium (Neurobasal medium with 2% B27 supplement, 5 mM HEPES, 0.5 mM L-glutamine, and 20 μg/ml Gentamycin), which was replaced every 3 days in culture. Cultures were maintained in a humidified, 37° C. incubator with 5% CO2. Experiments were performed on the eighth day in vitro (DIV10). […] Glucose-free medium (glucose-free Dulbecco's Modified Eagle Medium (GBSS, Invitrogen; Amarillo, Calif.) containing either epicatechin or quercetin or epicatechin plus quercetin at concentration of 1 μg/ml or 3 μg/ml or the corresponding DMSO control (0.02% DMSO) was placed in a 96-well plate and equilibrated to 0% oxygen in a modular chamber incubator (Billups-Rothenberg; Del Mar, Calif.). The chamber was flushed for 4 min at 20 l/min with an anoxic gas mixture (5% CO2 and Balanced […]; Dartmouth, NS) using a step-down pressure system and placed in a humidified, 37° C. incubator for 12 h. Cortical neuron medium was replaced with OGD-medium (anoxic and glucose-free) and the cultures were placed in the modular chamber incubator. The chamber was flushed again with anoxic gas and placed inside a humidified, 37° C. incubator for 3 hrs. […] Cell viability was assessed 24 hours after the completion of OGD. The culture media was exchanged for MEM media without phenol red containing 0.5 mg/ml MTT (3-[4,5-dimethylthiazol-2-yl]-2,5-diphenyltetrazolium bromide). […]

[1] = 1 μg/ml total flavonoid (~3 μM; E+Q 0.5 μg/ml each)
[2] = 3 μg/ml total flavonoid (~10 μM; E+Q 1.5 μg/ml each)

O=c1c(O)c(-c2ccc(O)c(O)c2)oc2cc(O)cc(O)c12 [Q]
reduction in OGD-induced neuronal cell death / loss of cell viability (increase in neuronal survival) [1]: failed to protect | reduction in OGD-induced neuronal cell death / loss of cell viability (increase in neuronal survival) [2]: modestly reduced the loss in cell viability | reduction in OGD-induced neuronal cell death / loss of cell viability (increase in neuronal survival) (3 μg/ml total flavonoid (~10 μM; E+Q 1.5 μg/ml each), listed as quercetin): 30% | reduction of loss in cell viability after OGD: did not reduce the loss in cell viability

Oc1cc(O)c2c(c1)O[C@H](c1ccc(O)c(O)c1)[C@H](O)C2 [E, (2R,3R)-2-(3,4-dihydroxyphenyl)-3,4-dihydro-2H-chromene-3,5,7-triol]
reduction in OGD-induced neuronal cell death / loss of cell viability (increase in neuronal survival) [1]: modestly reduced the loss in cell viability | reduction in OGD-induced neuronal cell death / loss of cell viability (increase in neuronal survival) (1 μg/ml total flavonoid (~3 μM; E+Q 0.5 μg/ml each), listed as Epicatechin): 30% | reduction in OGD-induced neuronal cell death / loss of cell viability (increase in neuronal survival) [2]: protected | reduction of loss in cell viability after OGD: did not reduce the loss in cell viability

From patent US20170027902A1, “Use of a Composition Comprising a Flavonol, A Flavonoid, and a Fatty Acid in the Treatment of Oxidative Injuries Due to Mitochondrial Dysfunction” (priority 2014, published 2017)
